Tests used:
[1] = test system: human PDZ domains; assay: G assay, E6 PL peptides against PDZ domain panel; settings: value names the PDZ domain(s) that saturated binding with the E6 peptide; signal classes (A450 nm 3-4 or 4)
Description: (1) A PDZ-domain polypeptide is bound to a surface, e.g. a protein binding surface. In a preferred embodiment, a GST/PDZ fusion protein containing one or more PDZ domains is bound to a polystyrene 96-well plate. […] In one embodiment, the GST/PDZ fusion protein is bound via an anti-GST antibody that is coated onto the 96-well plate. Adequate binding to the plate can be achieved when: • a. 100 uL per well of 5 ug/mL goat anti-GST polyclonal antibody (Pierce) in PBS is added to a polystyrene 96-well plate (e.g., Num Polysorb) at 4° C. for 12 hours. • b. The plate is blocked by addition of 200 uL per well of PBS/BSA for 2 hours at 4° C. • c. The plate is washed 3 times with PBS. • d. […]
(3) The binding of the biotinylated peptide to the GST/PDZ fusion protein surface can be detected using a variety of methods and detectors known to one of skill in the art. […] The reaction of the HRP and its substrate is terminated by addition of 100 uL per well of 1M sulfuric acid, and the absorbance of each well of the plate is read at 450 nm.
(4) Specific binding of a PL peptide and a PDZ domain polypeptide is determined by comparing the signal from the well(s) in which the PL peptide and PDZ domain polypeptide are combined, with the background signal(s). […]

[2] = biological target: T1, HPV16 E6/TIP 1 interaction (Homo sapiens, UniProt O14907); assay: Modified G assay, inhibition of TIP1-HPV E6 16 binding; settings: HPV E6 16 peptide 10 uM, TIP1 fusion protein 5 ug/mL, Tax peptide 0.001-100 uM, FIG. 3
T1 construct: made in house; host or cells: E. coli
T1 sequence (O14907 14-116): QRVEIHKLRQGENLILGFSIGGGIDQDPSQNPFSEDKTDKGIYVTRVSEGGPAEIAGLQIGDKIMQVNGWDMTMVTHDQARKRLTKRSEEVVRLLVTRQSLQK
Description: In one embodiment (in which a G assay is used), one or more PDZ domain-containing GST-fusion proteins are bound to the surface of wells of a 96-well plate as described supra (with appropriate controls including nonfusion GST protein). All fusion proteins are bound in multiple wells so that appropriate controls and statistical analysis can be done. A test compound in BSA/PBS (typically at multiple different concentrations) is added to wells. Immediately thereafter, 30 uL of a detectably labeled (e.g., biotinylated) peptide known to bind to the relevant PDZ domain (see, e.g., TABLE 3) is added in each of the wells at a final concentration of, e.g., between about 2 uM and about 40 uM, typically 5 uM, 15 uM, or 25 uM. […] The surface is washed free of unbound peptide three times with ice cold PBS and the amount of binding of the peptide in the presence and absence of the test compound is determined. Usually, the level of binding is measured for each set of replica wells (e.g. duplicates) by subtracting the mean GST alone background from the mean of the raw measurement of peptide binding in these wells. […]
Protocol • 1. […] Take early readings, if necessary, at 650 nm • 17. At 30 minutes, stop reaction with 100 ul of 0.18M H2SO4, and take final reading at 450 nm […]

[3] = test system: c-JUN N-terminal kinase (JNK); assay: Jun kinase assay in microinjected Xenopus oocytes; format: cell-based; parameters: inhibition of HPV16 E6-dependent JNK activation by co-injected peptide: dose or concentration left out as unconfirmed; settings: Xenopus oocytes; co-injected with activating amount of HPV16 E6 fusion protein
Description: Experimental Design: This experiment was divided into two phases. In the first phase, an MBP-E6 fusion protein (HPV16; see example 4) was microinjected into Xenopus oocytes at different concetrations and then the oocytes were assayed for INK activity. In the second phase, peptides corresponding to the C-termini of non-oncogenic E6 protein (HPV11), HPV16 E6 (oncogenic) or Tax (shown to block oncogenic E6 binding to PDZ domains, FIG. 3) were co-injected with an activating amount of MBP-E6 fusion protein to assess ther abilities to block JNK activation.
Isolation and Microinjection of Oocytes—Xenopus ovarian tissue was surgically removed, and oocytes were defolliculated for 1-1.5 h at room temperature with 2 mg/ml collagenase and 0.5 mg/ml polyvinylpyrrolidone in Ca21-free modified Barth's solution (88 mM NaCl, 1 mM KCl, 0.82 mM MgSO4, 2.4 mM NaHCO3, 10 mM HEPES, pH 7.5). The oocytes were then washed four times with modified Barth's solution. Stage VI oocytes were sorted manually and incubated at 16° C. for at least 10 h in OR2 solution (82.5 mM NaCl, 2.5 mM KCl, 1 mM CaCl2, 1 mM Na2HPO4, 5 mM HEPES, pH 7.5) supplemented with 1 mg/ml bovine serum albumin and […] gentamicin. Immature oocytes were microinjected with purified MBP-E6 protein or E6 protein and peptide and transferred to fresh OR2 for the duration of the time course. Five oocytes were collected per time point, frozen on dry ice, and stored at −80° C.
Lysis of Oocytes, Eggs, and Embryos—Frozen oocytes, eggs, and embryos were thawed rapidly and lysed by pipetting up and down in 60 ml of ice-cold extraction buffer (EB) (0.25 M sucrose, 0.1 M NaCl, 2.5 mM MgCl2, 20 mM HEPES, pH 7.2) containing 10 mM EDTA, protease inhibitors (10 mg/ml leupeptin, 10 mg/ml pepstatin, 10 mg/ml aprotinin, 1 mM phenylmethylsulfonyl fluoride), and phosphatase inhibitors (50 mM 2-glycerophosphate, 1 mM sodium orthovanadate, 2 mM microcystin). Samples were clarified by centrifugation for 2.5 min in a Beckman E microcentrifuge with a right angle rotor. Crude cytoplasm was collected and processed for immunoblotting or kinase assays, as described below.
Jun Kinase Assay—Jun kinase assays were performed as described. Crude oocyte, egg, or embryo cytoplasm was diluted 1:1 in EB and pre-cleared with 20 ml of glutathione-Sepharose beads (Amersham Pharmacia Biotech) for 1 h at 4° C. with moderate shaking. Lysates were incubated with glutathione S-transferase GST-c-Jun-(1-79) fusion protein (hereafter denoted GST-Jun) immobilized on glutathione- Sepharose beads. After 3 h at 4° C., the beads were washed three times with 50 mM HEPES, pH 7.5, 150 mM NaCl, 1% Triton X-100, 1 mM EDTA, 10% glycerol, 10 mM sodium pyrophosphate, 2 mM sodium orthovanadate, 10 mM sodium fluoride, 1 mM phenylmethylsulfonyl fluoride, and 10 mg/ml aprotinin (24) and once with 0.4 ml of kinase buffer (20 mM HEPES, pH 7.5, 10 mM MgCl2, 1 mM dithiothreitol, 200 mM sodium orthovanadate). The bound JNK activity was detected by the addition of 1 mCi of [g-32]JATP. The reaction was terminated after 20 min at 30° C., and the products were resolved by SDS-PAGE. The gels were transferred to PVDF membranes (Hybond; Amersham Pharmacia Biotech) and the incorporation of [32P]phosphate into GST-Jun was visualized by autoradiography. […]

Substance | PDZ binding partner (signal 4 and 5 of 0-5) [1] | inhibition of binding between TIP1 and HPV E6 16 (A450) [2] | inhibition of binding between TIP1 and HPV E6 16 (A450) ([2]; listed as Tax peptide) | inhibition of HPV16 E6-dependent JNK activation by co-injected peptide [3]
HPV 18: biotinylated 18-20 aa E6 C-terminal peptide of HPV 18, terminal residues E T Q V; RLQRRRETQV (SEQ ID NO: 14) | TIP1 and Magi 1 (PDZ #2) | – | – | –
Tax PL peptide: unlabeled peptide corresponding to the C-terminus of Tax, an independent PDZ ligand that binds similar PDZ domains (QISPGGLEPPSEKHFRETEV) | – | decrease binding between TIP1 and HPV E6 16 | Inhibition of the interaction between HPV E6 16 and TIP1 | can be inhibited by co-injection
